In the assay the target is T1, human FXR (Homo sapiens, UniProt Q96RI1).
T1 construct: expressed in transfected cells; host or cells: HEK293 cells stably carrying a 5xGal4-response-element firefly luciferase reporter, transiently transfected with pcDNA3.1-Gal4-FXR
T1 sequence (Q96RI1 262-486 limits assumed): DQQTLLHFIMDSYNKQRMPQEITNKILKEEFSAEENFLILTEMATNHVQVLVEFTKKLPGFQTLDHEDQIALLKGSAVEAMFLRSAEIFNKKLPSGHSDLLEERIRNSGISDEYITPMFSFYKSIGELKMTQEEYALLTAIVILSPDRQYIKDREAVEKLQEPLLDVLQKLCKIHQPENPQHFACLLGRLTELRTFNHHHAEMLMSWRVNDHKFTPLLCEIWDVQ
Kind of assay: transient human FXR/Gal4-luciferase reporter assay. It counts as cell-based. To be noted: Gal4-hFXR LBD fusion, luciferase reporter in HEK293 cells; response relative to 8 μM GW-4064. An outline of the steps:
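HEK293 cells stably carrying a 5×Gal4-response-element firefly luciferase reporter were transiently transfected with Gal4-hFXR. They were then incubated overnight at 37 °C with compound serial dilutions in medium containing 10% charcoal/dextran-stripped FBS. Luminescence was read after Steady-Glo addition.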

`COc1cccc(-c2cccc(N(C(=O)C3CCCCC3)C(C)C34CCC(c5nc(C)no5)(CC3)CC4)c2)c1` (single isomer, unassigned) [Example 94, N-(3′-methoxy-[1,1′-biphenyl]-3-yl)-N-(1-(4-(3-methyl-1,2,4-oxadiazol-5-yl)bicyclo[2.2.2]octan-1-yl)ethyl)cyclohexanecarboxamide]: it took 3.94 µM to reach a half-maximal effect (EC50).

In general, EC50 refers to the concentration giving half of the maximal effect. A lower EC50 goes with greater potency.

(Values after US12227496B2 (BRISTOL-MYERS SQUIBB COMPANY, priority 2019, dated 2025).)
